Measured values from US12497365B2, “4-pyridinyl formamide compound or derivative thereof, preparation method therefor, herbicidal composition and use thereof” (Qingdao Kingagroot Chemical Compound Co., Ltd., priority 2019, dated 2025).

Columns and labels:
Assay in all cases: Weeding effect in post-emergence stage
Format in all cases: in vivo
Conditions in all cases: active ingredient 2000 g/ha, 3 weeks after application, fresh weight control rate
[1] = test system: Abutilon theophrasti
Outline: (§1)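 Greenhouse post-emergence test: 2-3 leaf plants sprayed at 125-2000 g/ha, then fresh weight control rate scored at 3 weeks.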

[2] = test system: Amaranthus retroflexus L.
Outline: as §1

[3] = test system: Chenopodium album
Outline: as §1

[4] = test system: Descurainia sophia
Outline: as §1

SMILES | Weeding effect, activity level (growth control rate), Abutilon theophrasti [1] | Weeding effect, activity level (growth control rate), Amaranthus retroflexus L. [2] | Weeding effect, activity level (growth control rate), Chenopodium album [3] | Weeding effect, activity level (growth control rate), Descurainia sophia [4]
CCOC(C)n1cc(-c2nccc(C(=O)Nc3nnnn3C)c2Cl)cn1 (stereo not shown) [Compound 1-176] | 5 (Level 5: growth control rate is above 85%) | 5 (Level 5: growth control rate is above 85%) | 5 (Level 5: growth control rate is above 85%) | 5 (Level 5: growth control rate is above 85%)
Cn1nnnc1NC(=O)c1ccnc(-n2cc(F)cn2)c1Cl [Compound 1-166] | 5 (Level 5: growth control rate is above 85%) | 5 (Level 5: growth control rate is above 85%) | 5 (Level 5: growth control rate is above 85%) | 5 (Level 5: growth control rate is above 85%)
Cn1nnnc1NC(=O)c1ccnc(-c2cccc(OC(F)(F)F)c2)c1Cl [Compound 1-32] | 5 (Level 5: growth control rate is above 85%) | 5 (Level 5: growth control rate is above 85%) | 5 (Level 5: growth control rate is above 85%) | 5 (Level 5: growth control rate is above 85%)
COc1ccccc1-c1nccc(C(=O)Nc2nnnn2C)c1Cl [Compound 1-28] | 5 (Level 5: growth control rate is above 85%) | 5 (Level 5: growth control rate is above 85%) | 5 (Level 5: growth control rate is above 85%) | 5 (Level 5: growth control rate is above 85%)
Cc1cncc(-c2nccc(C(=O)Nc3nnnn3C)c2Cl)c1 [Compound 1-126] | 5 (Level 5: growth control rate is above 85%) | 5 (Level 5: growth control rate is above 85%) | 5 (Level 5: growth control rate is above 85%) | 5 (Level 5: growth control rate is above 85%)
Cc1conc1NC(=O)c1ccnc(-c2ccc(F)cc2)c1Cl [Compound 1-1577] | 5 (Level 5: growth control rate is above 85%) | 5 (Level 5: growth control rate is above 85%) | 5 (Level 5: growth control rate is above 85%) | 5 (Level 5: growth control rate is above 85%)
Cn1nnnc1NC(=O)c1ccnc(-c2cccc3c2OC(F)(F)O3)c1Cl [Compound 1-1972] | 5 (Level 5: growth control rate is above 85%) | 5 (Level 5: growth control rate is above 85%) | 5 (Level 5: growth control rate is above 85%) | 5 (Level 5: growth control rate is above 85%)
Cc1nnc(NC(=O)c2ccnc(-c3ccc(F)cc3)c2Cl)o1 [Compound 1-962] | 5 (Level 5: growth control rate is above 85%) | 5 (Level 5: growth control rate is above 85%) | 5 (Level 5: growth control rate is above 85%) | 5 (Level 5: growth control rate is above 85%)
Cn1nnnc1NC(=O)c1ccnc(-c2ccc(Cl)cc2Cl)c1Cl [Compound 1-86] | 5 (Level 5: growth control rate is above 85%) | 5 (Level 5: growth control rate is above 85%) | 5 (Level 5: growth control rate is above 85%) | 5 (Level 5: growth control rate is above 85%)
Cn1ccnc1-c1nccc(C(=O)Nc2nnnn2C)c1Cl [Compound 1-233] | 5 (Level 5: growth control rate is above 85%) | 5 (Level 5: growth control rate is above 85%) | 5 (Level 5: growth control rate is above 85%) | 5 (Level 5: growth control rate is above 85%)
CSc1nccc(C(=O)Nc2nnnn2C)c1Cl [Compound 1-2065] | 5 (Level 5: growth control rate is above 85%) | 5 (Level 5: growth control rate is above 85%) | 5 (Level 5: growth control rate is above 85%) | 5 (Level 5: growth control rate is above 85%)
C=Cc1c(C(=O)Nc2nnnn2C)ccnc1-c1ccc(F)cc1 [Compound 1-218] | 5 (Level 5: growth control rate is above 85%) | 5 (Level 5: growth control rate is above 85%) | 5 (Level 5: growth control rate is above 85%) | 5 (Level 5: growth control rate is above 85%)
O=C(Nc1ncco1)c1ccnc(-c2ccc(F)cc2)c1Cl [Compound 1-1607] | 5 (Level 5: growth control rate is above 85%) | 5 (Level 5: growth control rate is above 85%) | 5 (Level 5: growth control rate is above 85%) | 5 (Level 5: growth control rate is above 85%)
Cn1nnnc1NC(=O)c1ccnc(-c2ccccc2-c2ccccc2)c1Cl [Compound 1-52] | 5 (Level 5: growth control rate is above 85%) | 5 (Level 5: growth control rate is above 85%) | 5 (Level 5: growth control rate is above 85%) | 5 (Level 5: growth control rate is above 85%)
C=Cc1ccc(-c2nccc(C(=O)Nc3nnnn3C)c2Cl)cc1 [Compound 1-1918] | 5 (Level 5: growth control rate is above 85%) | 5 (Level 5: growth control rate is above 85%) | 5 (Level 5: growth control rate is above 85%) | 5 (Level 5: growth control rate is above 85%)
Cn1nnnc1NC(=O)c1ccnc(-c2cccc(F)c2F)c1Cl [Compound 1-62] | 5 (Level 5: growth control rate is above 85%) | 5 (Level 5: growth control rate is above 85%) | 5 (Level 5: growth control rate is above 85%) | 5 (Level 5: growth control rate is above 85%)
Cn1nnnc1NC(=O)c1ccnc(-c2ccnc(Cl)c2)c1Cl [Compound 1-151] | 5 (Level 5: growth control rate is above 85%) | 5 (Level 5: growth control rate is above 85%) | 5 (Level 5: growth control rate is above 85%) | 5 (Level 5: growth control rate is above 85%)
COCc1c(C(=O)Nc2nnnn2C)ccnc1-c1ccc(F)cc1 [Compound 1-214] | 5 (Level 5: growth control rate is above 85%) | 5 (Level 5: growth control rate is above 85%) | 5 (Level 5: growth control rate is above 85%) | 5 (Level 5: growth control rate is above 85%)
Cn1nnnc1NC(=O)c1ccnc(-c2ccc(C#N)nn2)c1Cl [Compound 1-155] | 5 (Level 5: growth control rate is above 85%) | 5 (Level 5: growth control rate is above 85%) | 5 (Level 5: growth control rate is above 85%) | 5 (Level 5: growth control rate is above 85%)
Cn1nnnc1NC(=O)c1ccnc(-c2cnc(F)nc2)c1Cl [Compound 1-158] | 5 (Level 5: growth control rate is above 85%) | 5 (Level 5: growth control rate is above 85%) | 5 (Level 5: growth control rate is above 85%) | 5 (Level 5: growth control rate is above 85%)
Cn1nnnc1NC(=O)c1ccnc(-c2cccc3c2oc2ccccc23)c1Cl [Compound 1-116] | 5 (Level 5: growth control rate is above 85%) | 5 (Level 5: growth control rate is above 85%) | 5 (Level 5: growth control rate is above 85%) | 5 (Level 5: growth control rate is above 85%)
Cn1nnnc1NC(=O)c1ccnc(-c2cscn2)c1Cl [Compound 1-228] | 5 (Level 5: growth control rate is above 85%) | 5 (Level 5: growth control rate is above 85%) | 5 (Level 5: growth control rate is above 85%) | 5 (Level 5: growth control rate is above 85%)
